Test results as given in patent US12070455B2, “Thienopyrrole compounds” (Gilead Sciences, Inc., priority 2021, dated 2024).
pEC50: −log10 of the molar value.

Assays:
[1] = biological target: T1, TLR8 (Homo sapiens, UniProt Q9NR97); assay: TLR8 human peripheral blood mononuclear cell (PBMC) cell-based assay; conditions: human PBMCs; 1 h with antagonist, then TLR8 agonist Compound A 800 nM for 6 h; cytokines (TNFa and IL12p40) in supernatant; read-out: TLR-8 EC50
T1 construct: Human peripheral blood mononuclear cells (PBMCs) consist of lymphocytes, monocytes and dendritic cells that express TLR7, TLR8 and TLR9; endogenous in cells; host or cells: cryopreserved human PBMCs from healthy donors
T1 sequence (Q9NR97 27-1041): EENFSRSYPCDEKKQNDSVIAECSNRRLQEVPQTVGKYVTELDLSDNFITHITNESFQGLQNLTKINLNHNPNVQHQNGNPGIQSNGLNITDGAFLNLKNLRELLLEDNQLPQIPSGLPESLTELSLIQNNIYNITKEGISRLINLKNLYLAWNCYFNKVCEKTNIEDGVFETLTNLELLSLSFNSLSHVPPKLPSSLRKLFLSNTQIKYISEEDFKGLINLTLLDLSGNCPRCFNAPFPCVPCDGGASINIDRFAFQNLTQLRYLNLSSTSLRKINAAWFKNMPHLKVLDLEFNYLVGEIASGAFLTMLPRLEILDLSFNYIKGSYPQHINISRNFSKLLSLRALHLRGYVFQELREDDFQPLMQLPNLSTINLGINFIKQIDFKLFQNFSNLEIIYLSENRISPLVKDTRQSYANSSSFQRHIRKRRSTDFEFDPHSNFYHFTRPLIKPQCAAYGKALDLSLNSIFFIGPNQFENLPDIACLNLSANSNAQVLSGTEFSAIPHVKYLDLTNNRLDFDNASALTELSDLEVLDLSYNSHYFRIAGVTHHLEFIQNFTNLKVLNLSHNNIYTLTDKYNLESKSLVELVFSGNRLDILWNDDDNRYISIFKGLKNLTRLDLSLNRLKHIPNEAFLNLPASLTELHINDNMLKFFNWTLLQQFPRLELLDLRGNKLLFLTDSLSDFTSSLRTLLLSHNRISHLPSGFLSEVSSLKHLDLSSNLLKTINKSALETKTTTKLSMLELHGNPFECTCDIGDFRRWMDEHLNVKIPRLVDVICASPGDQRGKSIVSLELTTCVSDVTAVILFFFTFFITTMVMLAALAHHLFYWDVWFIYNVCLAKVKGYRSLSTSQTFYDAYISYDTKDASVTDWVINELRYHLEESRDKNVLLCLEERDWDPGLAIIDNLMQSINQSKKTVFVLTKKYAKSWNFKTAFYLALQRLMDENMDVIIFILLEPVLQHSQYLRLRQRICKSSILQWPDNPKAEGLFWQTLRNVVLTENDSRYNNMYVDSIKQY
Method: TLR8 Human Peripheral Blood Mononuclear Cell (PBMC) Cell-Based Assay
Cryopreserved human PBMCs from healthy donors were thawed and resuspended in RPMI-1640 media with L-glutamine (Corning) supplemented with 10% Fetal Bovine Serum (Hyclone) and 1× Penicillin-Streptomycin (Corning). After counting, the cell density was adjusted to 2 million cells/ml and incubated for 1 hour at 37° C., 5% CO2 for recovery. Following the recovery, the cells were plated by adding 50 μl per well (100,000 cells) to 384-well cell culture plates (Greiner) containing 250 nl of test antagonists in 100% DMSO per well, in a 10 points dose response in quadruplicates. PBMCs were incubated in the presence of antagonists for one hour at 37° C., 5% CO2 before being stimulated with TLR8 agonist. Compound A (Gilead Sciences, U.S. Pat. No. 10,285,990) was used as the TLR8 agonist at a final concentration of 800 nM. PBMCs were incubated in the presence of antagonist and the TLR8 agonist for an additional 6 hours at 37° C., 5% CO2. At the end of the incubation, the cell culture plates were centrifuged at 500 g for 5 min, and the cell culture supernatant was collected. The level of cytokines (TNFa and IL12p40) in the supernatant was measured by electrochemiluminescence immunoassays (Mesoscale Discovery) following manufacturer's recommended protocols. The level of cytokine measured was plotted against the antagonist concentration and fitted to a sigmoidal function to determine the EC50, which are shown below in Table 6.

[2] = biological target: T2, TLR7 (Homo sapiens, UniProt Q9NYK1); assay: TLR7 human peripheral blood mononuclear cell (PBMC) cell-based assay; conditions: human PBMCs; 1 h with test antagonist, then TLR7 agonist GS-986 400 nM for 6 h; cytokines (IL-6 and IFNα) in supernatant; read-out: TLR-7 EC50
T2 construct: Human peripheral blood mononuclear cells (PBMCs) consist of lymphocytes, monocytes and dendritic cells that express TLR7, TLR8 and TLR9; endogenous in cells; host or cells: cryopreserved human PBMCs from healthy donors
T2 sequence (Q9NYK1 27-1049): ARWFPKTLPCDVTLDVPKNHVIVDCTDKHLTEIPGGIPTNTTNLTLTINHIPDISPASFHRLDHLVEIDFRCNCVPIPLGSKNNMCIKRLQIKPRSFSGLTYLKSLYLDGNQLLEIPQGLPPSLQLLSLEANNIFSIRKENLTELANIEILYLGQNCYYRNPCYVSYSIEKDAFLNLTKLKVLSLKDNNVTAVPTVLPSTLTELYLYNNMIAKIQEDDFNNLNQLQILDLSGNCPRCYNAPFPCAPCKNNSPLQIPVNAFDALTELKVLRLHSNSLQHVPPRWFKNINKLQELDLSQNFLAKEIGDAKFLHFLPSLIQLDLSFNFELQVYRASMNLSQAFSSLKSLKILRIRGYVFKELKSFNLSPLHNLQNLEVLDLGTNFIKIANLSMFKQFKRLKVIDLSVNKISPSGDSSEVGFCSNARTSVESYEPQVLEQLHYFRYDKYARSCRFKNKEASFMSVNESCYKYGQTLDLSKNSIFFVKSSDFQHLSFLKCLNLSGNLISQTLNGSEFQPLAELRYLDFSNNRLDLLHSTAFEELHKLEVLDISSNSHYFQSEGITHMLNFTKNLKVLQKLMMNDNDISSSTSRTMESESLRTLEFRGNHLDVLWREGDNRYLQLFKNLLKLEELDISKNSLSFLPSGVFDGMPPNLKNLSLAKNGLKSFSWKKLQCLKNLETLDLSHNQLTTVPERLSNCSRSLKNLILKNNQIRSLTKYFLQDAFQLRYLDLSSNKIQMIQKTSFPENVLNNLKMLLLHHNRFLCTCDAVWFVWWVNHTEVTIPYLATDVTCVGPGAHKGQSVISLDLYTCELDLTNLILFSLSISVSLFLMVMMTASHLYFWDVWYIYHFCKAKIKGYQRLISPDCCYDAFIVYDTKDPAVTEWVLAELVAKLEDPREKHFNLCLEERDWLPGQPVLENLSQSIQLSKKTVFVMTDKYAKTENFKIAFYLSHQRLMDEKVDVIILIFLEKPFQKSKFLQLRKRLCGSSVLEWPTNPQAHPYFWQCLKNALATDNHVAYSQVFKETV
Source text: TLR7/9 Human Peripheral Blood Mononuclear Cell (PBMC) Cell-Based Assay
Human peripheral blood mononuclear cells (PBMCs) consist of lymphocytes, monocytes and dendritic cells that express TLR7, TLR8 and TLR9. These cells respond to TLR7, TLR8 and TLR9 ligand stimulation and produce cytokines and chemokines in vitro and in vivo. Human PBMCs are therefore suitable to be used in a cell-based assay to assess the in vitro potency of a TLR 7, 8, and/or 9 antagonist.
Cryopreserved human PBMCs from healthy donors were thawed and resuspended in RPMI-1640 media with L-glutamine (Corning) supplemented with 10% Fetal Bovine Serum (Hyclone) and 1× Penicillin-Streptomycin (Corning). After counting, the cell density was adjusted to 2 million cells/ml and incubated for 1 hour at 37° C., 5% CO2 for recovery. Following the recovery, the cells were plated by adding 50 μl per well (100,000 cells) to 384-well cell culture plates (Greiner) containing 250 nl of test antagonists in 100% DMSO per well, in a 10 points dose response in quadruplicates. PBMCs were incubated in the presence of test antagonists for one hour at 37° C., 5% CO2 before being stimulated with a TLR7 or TLR9 agonist. GS-986 (Gilead Sciences) was used as the TLR7 agonist at a final concentration of 400 nM. ODN-2216 (InvivoGen) was used as the TLR9 agonist at a final concentration of 3 μM. PBMCs were incubated in the presence of the test antagonist and the TLR7 (or TLR9) agonist for an additional 6 hours at 37° C., 5% CO2. At the end of the incubation, the cell culture plates were centrifuged at 500 g for 5 min, and the cell culture supernatant was collected. The level of cytokines (IL-6 and IFNα) in the supernatant was measured by electrochemiluminescence immunoassays (Mesoscale Discovery) following manufacturer's recommended protocols. The level of cytokine measured was plotted against the test antagonist concentration and fitted to a sigmoidal function to determine the EC50, which are shown below in Table 6.

Row | pEC50 [1] | pEC50 [2] | SMILES
1 | 9.85 | 9.16 | Cc1c(C2C[C@@H]3C[C@H]2CN3CC(N)=O)sc2[nH]c(-c3cn4ncnc4c4c3CCC4)c(C(C)C)c12 (stereo partly drawn) [Example 8]
2 | 9.44 | 9.41 | Cc1c([C@@H]2C[C@@H]3C[C@H]2CN3CC(N)=O)sc2[nH]c(-c3cn4ncnc4c4c3COC4)c(C(C)C)c12 [Example 48]
3 | 8.51 | 9.46 | Cc1c(C2CCN(CC(N)=O)CC2)sc2[nH]c(-c3cn4ncnc4c4c3CCC4)c(C(C)C)c12 [Example 6, 2-(4-(5-(8,9-dihydro-7H-cyclopenta[c][1,2,4]triazolo[1,5-a]pyridin-6-yl)-4-isopropyl-3-methyl-6H-thieno[2,3-b]pyrrol-2-yl)piperidin-1-yl)acetamide]
4 | 7.20 | 8.40 | Cc1c(C2CCN(CC(N)=O)CC2)sc2[nH]c(-c3cn4ncnc4c4c3COC4)c(C(C)C)c12 [Example 45]
5 | 7.82 | 9.39 | Cc1c([C@@H]2C[C@H]3CC[C@@H](C2)N3CC(N)=O)sc2[nH]c(-c3cn4ncnc4c4c3COC4)c(C(C)C)c12 [Example 49]
6 | 8.40 | 9.02 | Cc1c(C2CC3CCC(C2)N3)sc2[nH]c(-c3cn4ncnc4c4c3CCC4)c(C(C)C)c12 (stereo not drawn) [Example 2]
7 | 8.69 | 8.96 | Cc1nc2c3c(c(-c4[nH]c5sc([C@@H]6C[C@@H]7C[C@H]6CN7CC(N)=O)c(C)c5c4C(C)C)cn2n1)COC3 [Example 43, 2-((1S,4R,5R)-5-(4-isopropyl-3-methyl-5-(2-methyl-7,9-dihydrofuro[3,4-c][1,2,4]triazolo[1,5-a]pyridin-6-yl)-6H-thieno[2,3-b]pyrrol-2-yl)-2-azabicyclo[2.2.1]heptan-2-yl)acetamide]
8 | 7.90 | 8.84 | Cc1c(C2CCN(C(=O)[C@H]3C[C@@H](F)CN3)CC2)sc2[nH]c(-c3cn4ncnc4c4c3CCC4)c(C(C)C)c12 [Example 16]
9 | 8.32 | 8.22 | Cc1c(C2CCN(CC3(C)COC3)CC2)sc2[nH]c(-c3cn4ncnc4c4c3CCC4)c(C(C)C)c12 [Example 12, 5-(8,9-dihydro-7H-cyclopenta[c][1,2,4]triazolo[1,5-a]pyridin-6-yl)-4-isopropyl-3-methyl-2-(1-((3-methyloxetan-3-yl)methyl)piperidin-4-yl)-6H-thieno[2,3-b]pyrrole]
10 | 9.51 | 9.11 | Cc1c(C2C[C@@H]3C[C@H]2CN3)sc2[nH]c(-c3cn4ncnc4c4c3CCC4)c(C(C)C)c12 (stereo partly drawn) [Example 3]

Second part, the molecule before the results:

Row | SMILES | pEC50 [1] | pEC50 [2]
11 | CC(C)c1c(-c2cn3ncnc3c3c2CCC3)[nH]c2sc(C(=O)N3CCNCC3)cc12 [Example 42] | 9.16 | 9.11
12 | Cc1c(C2CCN(Cc3ccn(C)n3)CC2)sc2[nH]c(-c3cn4ncnc4c4c3CCC4)c(C(C)C)c12 [Example 13] | 8.23 | 8.84
13 | Cc1c(-c2ccc(N3CCNCC3)cc2)sc2[nH]c(-c3cn4ncnc4c4c3CCC4)c(C(C)C)c12 [Example 21, 5-(8,9-dihydro-7H-cyclopenta[c][1,2,4]triazolo[1,5-a]pyridin-6-yl)-4-isopropyl-3-methyl-2-(4-(piperazin-1-yl)phenyl)-6H-thieno[2,3-b]pyrrole] | 8.88 | 9.29
14 | Cc1c(C2CCNCC2)sc2[nH]c(-c3cn4ncnc4c4c3CCO4)c(C(C)C)c12 [Example 35] | 8.10 | 9.48
15 | Cc1c(C2CCN(C(=O)[C@H]3COCCN3)CC2)sc2[nH]c(-c3cn4ncnc4c4c3COC4)c(C(C)C)c12 [Example 52] | 7.57 | 8.93
16 | Cc1c(C2CCC(N3CC4(CCNC4=O)C3)CC2)sc2[nH]c(-c3cn4ncnc4c4c3CCC4)c(C(C)C)c12 (stereo not drawn) [Example 27] | 8.59 | 9.59
17 | Cc1c(C2CCN(C(=O)[C@H]3COCCN3)CC2)sc2[nH]c(-c3cn4ncnc4c4c3CCO4)c(C(C)C)c12 [Example 37] | 7.61 | 8.53
18 | Cc1nc2c3c(c(-c4[nH]c5sc([C@@H]6C[C@H]7CC[C@@H](C6)N7CC(N)=O)c(C)c5c4C(C)C)cn2n1)COC3 [Example 46] | 7.11 | 8.92
